According to patent US5047533A, “Acyclic purine phosphonate nucleotide analogs” (SRI International, priority 1990, dated 1991):

System: HSV-1TK+ (Strain McCrae of type 1 herpes)
Experiment: Inhibition of viral CPE, HSV-1TK+ in MA-104 cells
Assay type: cell-based
Experimental: One herpes virus strain employed was Strain McCrae of type 1 herpes (thymidine kinase positive virus) (HSV-1TK^+). This strain was prepared and titered in MA-104 cells and frozen at -90° C. until use. Also used were strain HF (HSV-1TK^-). Strain E194 (HSV-2), NJB strain (MCMV), strain AD169 (HCMV).
Continuous passaged monkey kidney (MA-104) cells were used for testing of herpes-type virus, with growth medium consisting of Minimum Essential Medium (MEM) supplemented with 0.1% NaHCO3 and […] gentamicin.
To a 96 well microtiter plate containing an established 24 hour monolayer of cells from which the medium has been decanted was added 0.1 ml of varying (one-half log10) concentrations of test compound, which incubated on the cell 15 minutes, after which 0.1 ml of virus in a concentration of 320 cell culture 50% infectious doses (CCID50)/0.1 ml was added. The plate was covered with plastic wrap and incubated at 37° C. Included with the test were toxicity controls (each concentration of compound+test medium in place of virus), virus controls (virus+test medium in place of compound) and cell controls (test medium in place of compound and virus). The cells were examined microscopically after 72 hours for evidence of cytotoxicity and for viral cytopathic effect (CPE). Vidarabine was run on the same plate in parallel. […] were added to the medium at a concentration of 2000 μg/ml for use as a positive control.
Antiviral activity was determined by observation of inhibition of viral CPE. This activity was expressed by ED50, defined as that dose range of compound causing 50% CPE inhibition.
A Virus Rating (VR) was also determined. VR is a numerical expression of antiviral activity, weighted to take into account any cytotoxicity observed, as discussed by Sidewell et al, Appl Microbiol (1971) 22:797. Generally, a VR of 0.1-0.4 indicates slight antiviral effect, 0.5-0.9 indicates moderate antiviral effect, and ≥1.0 indicates strong antiviral effect.

CCOP(=O)(O)CCCOCn1cnc2c(=O)[nH]c(N)nc21 [Compound 2, 9(3'-ethylphosphono-1'-propyloxymethyl)guanine]
activity against HSV-1TK+ relative to vidarabine: comparable to that of vidarabine
EC50 (MA104, 72 h, read-out: ED50): < 1 µg/mL
inhibition at 1000 µg/mL (MA104, read-out: CPE Inhib., Table 3 Test 1, 1000 μg/ml): 100%
VR (Virus Rating) (Table 3 Test 1, HSV-1TK+): > 2.0
ED50 (Table 3 Test 2, HSV-1TK+): < 1.0 µg/mL
VR (Virus Rating) (Table 3 Test 2, HSV-1TK+): > 1.4
